From PMC5218480 (PLoS ONE, 2017) come the findings set out here.

In this experiment the test system is MV-4-11 cells. As to the kind of experiment: Gene expression microarray analysis (Affymetrix PrimeView) and GSEA. Type of experiment: cell-based, human. Particulars: MV-4-11 cells, 48 hours. Also noted: RFU PODN (11730768_x_at) / Fold change /veh PODN (11730768_x_at) / RFU LINC00158 (11744669_a_at) / Fold change /veh LINC00158 (11744669_a_at) / RFU DUSP10 (11751237_a_at) / Fold change /veh DUSP10 (11751237_a_at) / RFU ID3 (11757404_x_at) / Fold change /veh ID3 (11757404_x_at) / RFU PLEKHG5 (11737974_s_at) / Fold change /veh PLEKHG5 (11737974_s_at) / RFU LRRC4B (11730491_at) / Fold change /veh LRRC4B (11730491_at) / RFU GIMAP4 (11747438_a_at) / Fold change /veh GIMAP4 (11747438_a_at) / RFU KRT8 (11758183_x_at) / Fold change /veh KRT8 (11758183_x_at) / RFU CNN1 (11734310_a_at) / Fold change /veh CNN1 (11734310_a_at) / RFU VPS37D (11726825_at) / Fold change /veh VPS37D (11726825_at) / RFU C10orf10 (11716522_x_at) / Fold change /veh C10orf10 (11716522_x_at) / RFU KIR2DL2 /// KIR2DL4 /// KIR2DL5A /// KIR2DL5B /// KIR2DS1 /// KIR2DS2 /// KIR2DS3 /// KIR2DS4 /// KIR3DL3 /// KIR3DL3 /// KIR3DS1 (11738374_at) / Fold change /veh KIR2DL2 /// KIR2DL4 /// KIR2DL5A /// KIR2DL5B /// KIR2DS1 /// KIR2DS2 /// KIR2DS3 /// KIR2DS4 /// KIR3DL3 /// KIR3DL3 /// KIR3DS1 (11738374_at) / RFU C1QL1 (11718748_at) / Fold change /veh C1QL1 (11718748_at) / RFU TMPRSS4 (11747572_a_at) / Fold change /veh TMPRSS4 (11747572_a_at) / RFU HAMP (11756126_x_at) / Fold change /veh HAMP (11756126_x_at) / RFU RNFT2 (11725882_a_at) / Fold change /veh RNFT2 (11725882_a_at) / RFU NR4A2 (11747474_a_at) / Fold change /veh NR4A2 (11747474_a_at) / RFU ABCC12 (11746883_a_at) / Fold change /veh ABCC12 (11746883_a_at) / RFU TMEM136 (11760407_x_at) / Fold change /veh TMEM136 (11760407_x_at) / RFU CLDN22 /// WWC2 (11732394_at) / Fold change /veh CLDN22 /// WWC2 (11732394_at) / RFU HLA-DPB1 (11760878_x_at) / Fold change /veh HLA-DPB1 (11760878_x_at) / RFU SPINT1 (11716480_a_at) / Fold change /veh SPINT1 (11716480_a_at) / RFU GAP43 (11754022_s_at) / Fold change /veh GAP43 (11754022_s_at) / RFU A4GNT (11735810_at) / Fold change /veh A4GNT (11735810_at) / RFU PRB3 (11715151_x_at) / Fold change /veh PRB3 (11715151_x_at) / RFU TUBB4B (11761932_at) / Fold change /veh TUBB4B (11761932_at) / RFU CAPN14 (11732068_a_at) / Fold change /veh CAPN14 (11732068_a_at) / RFU TMCC2 (11721928_a_at) / Fold change /veh TMCC2 (11721928_a_at) / RFU IRGQ (11745062_a_at) / Fold change /veh IRGQ (11745062_a_at) / RFU FAM174B (11720279_a_at) / Fold change /veh FAM174B (11720279_a_at) / RFU TMPRSS4 (11748680_a_at) / Fold change /veh TMPRSS4 (11748680_a_at) / RFU FAM212B (11763350_a_at) / Fold change /veh FAM212B (11763350_a_at) / RFU PLEKHG5 (11743358_a_at) / Fold change /veh PLEKHG5 (11743358_a_at) / RFU ZSCAN30 (11745921_a_at) / Fold change /veh ZSCAN30 (11745921_a_at) / RFU CMKLR1 (11741424_a_at) / Fold change /veh CMKLR1 (11741424_a_at) / RFU LOC101060620 /// MAPK8IP1 (11723275_at) / Fold change /veh LOC101060620 /// MAPK8IP1 (11723275_at) / RFU SPTSSB (11747773_x_at) / Fold change /veh SPTSSB (11747773_x_at) / RFU PRSS12 (11739890_at) / Fold change /veh PRSS12 (11739890_at) / RFU BIN1 (11741810_x_at) / Fold change /veh BIN1 (11741810_x_at) / RFU WNT11 (11732464_a_at) / Fold change /veh WNT11 (11732464_a_at) / RFU C10orf10 (11716521_a_at) / Fold change /veh C10orf10 (11716521_a_at) / RFU C5orf56 (11738089_at) / Fold change /veh C5orf56 (11738089_at) / RFU CYB561 (11721691_x_at) / Fold change /veh CYB561 (11721691_x_at) / RFU ANKRD19P (11752326_a_at) / Fold change /veh ANKRD19P (11752326_a_at) / RFU OR2T12 /// OR2T33 /// OR2T8 (11738714_s_at) / Fold change /veh OR2T12 /// OR2T33 /// OR2T8 (11738714_s_at) / RFU VCAN (11748164_a_at) / Fold change /veh VCAN (11748164_a_at) / RFU JSRP1 (11732532_at) / Fold change /veh JSRP1 (11732532_at) / RFU KRTAP10-11 (11738290_x_at) / Fold change /veh KRTAP10-11 (11738290_x_at) / RFU MYO3A (11730013_a_at) / Fold change /veh MYO3A (11730013_a_at) / RFU EBF3 (11725865_a_at) / Fold change /veh EBF3 (11725865_a_at) / RFU CAMK2N1 (11719241_x_at) / Fold change /veh CAMK2N1 (11719241_x_at) / RFU C5orf56 (11738088_a_at) / Fold change /veh C5orf56 (11738088_a_at) / RFU OLFML3 (11715873_a_at) / Fold change /veh OLFML3 (11715873_a_at) / RFU LOC100653217 /// NTM (11731650_a_at) / Fold change /veh LOC100653217 /// NTM (11731650_a_at) / RFU MAPK11 (11762145_a_at) / Fold change /veh MAPK11 (11762145_a_at) / RFU FIZ1 (11724087_x_at) / Fold change /veh FIZ1 (11724087_x_at) / RFU OASL (11726364_x_at) / Fold change /veh OASL (11726364_x_at) / RFU SOX15 (11748057_x_at) / Fold change /veh SOX15 (11748057_x_at) / RFU CD79A (11719716_a_at) / Fold change /veh CD79A (11719716_a_at) / RFU HIST1H1D (11736915_at) / Fold change /veh HIST1H1D (11736915_at) / RFU CASKIN2 (11723855_a_at) / Fold change /veh CASKIN2 (11723855_a_at) / RFU LOC730098 (11760151_x_at) / Fold change /veh LOC730098 (11760151_x_at) / RFU OR4N2 (11742367_at) / Fold change /veh OR4N2 (11742367_at) / RFU PRRT2 (11749266_a_at) / Fold change /veh PRRT2 (11749266_a_at) / RFU SNX32 (11753110_a_at) / Fold change /veh SNX32 (11753110_a_at) / RFU CDHR5 (11726645_a_at) / Fold change /veh CDHR5 (11726645_a_at) / RFU RCAN1 (11760418_a_at) / Fold change /veh RCAN1 (11760418_a_at) / RFU FAM167A (11723789_a_at) / Fold change /veh FAM167A (11723789_a_at) / RFU FAM26E (11764081_at) / Fold change /veh FAM26E (11764081_at) / RFU ISYNA1 (11749810_s_at) / Fold change /veh ISYNA1 (11749810_s_at) / RFU ACY1 (11761880_at) / Fold change /veh ACY1 (11761880_at) / RFU 11764098_at / Fold change /veh 11764098_at / RFU SAMD14 (11745864_x_at) / Fold change /veh SAMD14 (11745864_x_at) / RFU NPB (11741838_a_at) / Fold change /veh NPB (11741838_a_at) / RFU TMPRSS6 (11731388_a_at) / Fold change /veh TMPRSS6 (11731388_a_at) / RFU KRTAP10-2 (11738614_at) / Fold change /veh KRTAP10-2 (11738614_at) / RFU ARHGAP8 /// PRR5-ARHGAP8 (11727945_x_at) / Fold change /veh ARHGAP8 /// PRR5-ARHGAP8 (11727945_x_at) / RFU KRTAP5-7 /// NADSYN1 (11734609_at) / Fold change /veh KRTAP5-7 /// NADSYN1 (11734609_at) / RFU RASL12 (11751679_a_at) / Fold change /veh RASL12 (11751679_a_at) / RFU CDKN2B (11736163_a_at) / Fold change /veh CDKN2B (11736163_a_at) / RFU PRF1 (11729649_at) / Fold change /veh PRF1 (11729649_at) / RFU, ZNF638 /// ZNF638-IT1 / Fold change vs veh, ZNF638 /// ZNF638-IT1 / RFU, PANK3 / Fold change vs veh, PANK3 / RFU, SH3YL1 / Fold change vs veh, SH3YL1 / RFU, ZEB2 / Fold change vs veh, ZEB2 / RFU, NRIP1 / Fold change vs veh, NRIP1 / RFU, PTTG1IP / Fold change vs veh, PTTG1IP / RFU, CAPN2 / Fold change vs veh, CAPN2 / RFU, MED14 / Fold change vs veh, MED14 / RFU, SNORA58 / Fold change vs veh, SNORA58 / RFU, C1orf63 / Fold change vs veh, C1orf63 / RFU, LRRFIP1 / Fold change vs veh, LRRFIP1 / RFU, NDUFAF7 / Fold change vs veh, NDUFAF7 / RFU, SLC12A2 / Fold change vs veh, SLC12A2 / RFU, IBTK / Fold change vs veh, IBTK / RFU, ESF1 / Fold change vs veh, ESF1 / Fold change vs veh, TMEM50B / RFU, TAOK1 / Fold change vs veh, TAOK1 / RFU, ACBD3 / Fold change vs veh, ACBD3 / RFU, TMA16 / Fold change vs veh, TMA16 / RFU, RWDD3 / Fold change vs veh, RWDD3 / RFU, BCAT1 / Fold change vs veh, BCAT1 / RFU, EDEM3 / Fold change vs veh, EDEM3 / RFU, TMEM33 / Fold change vs veh, TMEM33 / RFU, WDR75 / Fold change vs veh, WDR75 / RFU, AHCTF1 / Fold change vs veh, AHCTF1 / RFU, TFRC / Fold change vs veh, TFRC / RFU, ZDHHC17 / Fold change vs veh, ZDHHC17 / RFU, NOM1 / Fold change vs veh, NOM1 / RFU, ARL8B / Fold change vs veh, ARL8B / RFU, ZBTB11 / Fold change vs veh, ZBTB11 / RFU, TAMM41 / Fold change vs veh, TAMM41 / RFU, KIAA1704 /// LOC100996395 / Fold change vs veh, KIAA1704 /// LOC100996395 / RFU, ING1 / Fold change vs veh, ING1 / RFU, TRMT61B / Fold change vs veh, TRMT61B / RFU, FUBP3 / Fold change vs veh, FUBP3 / RFU, TP53 / Fold change vs veh, TP53 / RFU, TNKS2 / Fold change vs veh, TNKS2 / RFU, ZFP14 / Fold change vs veh, ZFP14 / RFU, ACTR2 / Fold change vs veh, ACTR2 / RFU, PPP3R1 / Fold change vs veh, PPP3R1 / RFU, PIK3R1 / Fold change vs veh, PIK3R1 / RFU, HNRNPA1 / Fold change vs veh, HNRNPA1 / RFU, RNF170 / Fold change vs veh, RNF170 / RFU, ZNF28 / Fold change vs veh, ZNF28 / RFU, RNGTT / Fold change vs veh, RNGTT / RFU, OGT / Fold change vs veh, OGT / RFU, BRD1 / Fold change vs veh, BRD1 / RFU, MARS / Fold change vs veh, MARS / RFU, ZNF655 / Fold change vs veh, ZNF655 / RFU, FAHD1 / Fold change vs veh, FAHD1 / RFU, BDP1 / Fold change vs veh, BDP1 / RFU, LRRCC1 / Fold change vs veh, LRRCC1 / RFU, ARID1A / Fold change vs veh, ARID1A / RFU, ZNF146 / Fold change vs veh, ZNF146 / RFU, ZNF330 / Fold change vs veh, ZNF330 / RFU, GPN3 / Fold change vs veh, GPN3 / RFU, C9orf123 / Fold change vs veh, C9orf123 / RFU, N4BP2L2 / Fold change vs veh, N4BP2L2 / RFU, ARFIP1 / Fold change vs veh, ARFIP1 / RFU, FAM179B / Fold change vs veh, FAM179B / RFU, BCL10 / Fold change vs veh, BCL10 / RFU, UHRF1BP1L / Fold change vs veh, UHRF1BP1L / RFU, BET1 / Fold change vs veh, BET1 / RFU, CNOT2 / Fold change vs veh, CNOT2 / RFU, ZNF268 / Fold change vs veh, ZNF268 / Fold change vs veh, ZNF507 / RFU, DGCR2 / Fold change vs veh, DGCR2 / RFU, WDSUB1 / Fold change vs veh, WDSUB1 / Fold change vs veh, HSP90B1 /// MIR3652 / RFU, ADSS / Fold change vs veh, ADSS / RFU, GK / Fold change vs veh, GK / RFU, ZNF148 / Fold change vs veh, ZNF148 / RFU, TAF9 / Fold change vs veh, TAF9 / RFU, SLC1A5 / Fold change vs veh, SLC1A5 / RFU, SLMO2 / Fold change vs veh, SLMO2 / RFU, ABCC4 / Fold change vs veh, ABCC4 / RFU, LOC101060439 /// RAP1B / Fold change vs veh, LOC101060439 /// RAP1B / RFU, RFX7 / Fold change vs veh, RFX7 / RFU, GTPBP10 / Fold change vs veh, GTPBP10 / RFU, CNEP1R1 / Fold change vs veh, CNEP1R1 / RFU, BIVM-ERCC5 /// ERCC5 / Fold change vs veh, BIVM-ERCC5 /// ERCC5 / RFU, ILF3 / Fold change vs veh, ILF3 / RFU 11762660_at / Fold change /veh 11762660_at / RFU VCAN (11757783_s_at) / Fold change /veh VCAN (11757783_s_at) / RFU DDX43 (11728927_at) / Fold change /veh DDX43 (11728927_at) / RFU KRT8 (11758188_x_at) / Fold change /veh KRT8 (11758188_x_at) / RFU NKD1 (11759106_at) / Fold change /veh NKD1 (11759106_at) / RFU SRD5A1 (11742802_a_at) / Fold change /veh SRD5A1 (11742802_a_at) / RFU TPSAB1 /// TPSB2 (11721975_s_at) / Fold change /veh TPSAB1 /// TPSB2 (11721975_s_at) / RFU GSTM3 (11746129_a_at) / Fold change /veh GSTM3 (11746129_a_at) / RFU IL23R (11737362_x_at) / Fold change /veh IL23R (11737362_x_at) / RFU TMEM51 (11727254_a_at) / Fold change /veh TMEM51 (11727254_a_at) / RFU PIWIL2 (11732686_x_at) / Fold change /veh PIWIL2 (11732686_x_at) / RFU ORM1 (11744905_x_at) / Fold change /veh ORM1 (11744905_x_at) / RFU CCDC152 (11743942_at) / Fold change /veh CCDC152 (11743942_at) / RFU ECM1 (11717891_a_at) / Fold change /veh ECM1 (11717891_a_at) / RFU IL23R (11748794_a_at) / Fold change /veh IL23R (11748794_a_at) / RFU TNFAIP8L3 (11732012_x_at) / Fold change /veh TNFAIP8L3 (11732012_x_at) / RFU MBOAT4 (11741988_at) / Fold change /veh MBOAT4 (11741988_at) / RFU 11764193_at / Fold change /veh 11764193_at / RFU TMEM53 (11763286_at) / Fold change /veh TMEM53 (11763286_at) / RFU MAGEB2 (11727129_at) / Fold change /veh MAGEB2 (11727129_at) / RFU TMEM200A (11744735_a_at) / Fold change /veh TMEM200A (11744735_a_at) / RFU CCDC152 (11751479_a_at) / Fold change /veh CCDC152 (11751479_a_at) / RFU FAM211A (11726209_a_at) / Fold change /veh FAM211A (11726209_a_at) / RFU RGS16 (11746705_a_at) / Fold change /veh RGS16 (11746705_a_at) / RFU VCAN (11755009_s_at) / Fold change /veh VCAN (11755009_s_at) / RFU RHOB (11743442_s_at) / Fold change /veh RHOB (11743442_s_at) / RFU RGS16 (11720943_a_at) / Fold change /veh RGS16 (11720943_a_at) / RFU RGS16 (11720944_at) / Fold change /veh RGS16 (11720944_at) / RFU, VPS4B / Fold change vs veh, VPS4B / RFU, CREB1 / Fold change vs veh, CREB1 / RFU, DNAJC13 / Fold change vs veh, DNAJC13 / RFU, GNAQ / Fold change vs veh, GNAQ / RFU, CDK5R1 / Fold change vs veh, CDK5R1 / RFU, ZRANB3 / Fold change vs veh, ZRANB3 / RFU, CUL4A / Fold change vs veh, CUL4A / RFU, CCNY / Fold change vs veh, CCNY / RFU, UFL1 / Fold change vs veh, UFL1 / RFU, COG3 / Fold change vs veh, COG3 / RFU, DIAPH2 / Fold change vs veh, DIAPH2 / RFU, SKA2 / Fold change vs veh, SKA2 / RFU, AFF3 / Fold change vs veh, AFF3 / RFU, LMF1 / Fold change vs veh, LMF1 / RFU, IPO11 / Fold change vs veh, IPO11 / RFU, DFFB / Fold change vs veh, DFFB / RFU, FOXP1 / Fold change vs veh, FOXP1 / RFU, CARD8 / Fold change vs veh, CARD8 / RFU, STRN3 / Fold change vs veh, STRN3 / RFU, ADK / Fold change vs veh, ADK / RFU, RASSF2 / Fold change vs veh, RASSF2 / RFU, WIPF1 / Fold change vs veh, WIPF1 / RFU, LARP1B / Fold change vs veh, LARP1B / RFU, RASA1 / Fold change vs veh, RASA1 / RFU, RB1 / Fold change vs veh, RB1 / RFU, PPFIA1 / Fold change vs veh, PPFIA1 / RFU, MAT2A / Fold change vs veh, MAT2A / RFU, CCT5 / Fold change vs veh, CCT5 / RFU, WDR92 / Fold change vs veh, WDR92 / RFU, CUX1 / Fold change vs veh, CUX1 / RFU, TTC7A / Fold change vs veh, TTC7A / RFU, TMEM135 / Fold change vs veh, TMEM135 / RFU, DEPTOR / Fold change vs veh, DEPTOR / RFU, CPM / Fold change vs veh, CPM / RFU, DNAJB6 / Fold change vs veh, DNAJB6 / RFU, CACNA2D3 / Fold change vs veh, CACNA2D3 / RFU, DTX4 / Fold change vs veh, DTX4 / RFU, TFCP2 / Fold change vs veh, TFCP2 / RFU, GMCL1 /// GMCL1P1 / Fold change vs veh, GMCL1 /// GMCL1P1 / RFU, AEBP2 / Fold change vs veh, AEBP2 / RFU, SNHG1 /// SNORD22 /// SNORD25 /// SNORD26 /// SNORD27 /// SNORD28 /// SNORD29 /// SNORD31 / Fold change vs veh, SNHG1 /// SNORD22 /// SNORD25 /// SNORD26 /// SNORD27 /// SNORD28 /// SNORD29 /// SNORD31 / Fold change (Aza/veh), C12orf56 (ProbeSet 11735607_a_at) / Fold change (ACY-1035/veh), C12orf56 (ProbeSet 11735607_a_at) / Fold change (Aza/veh), FGFR1OP (ProbeSet 11751329_s_at) / Fold change (ACY-1035/veh), FGFR1OP (ProbeSet 11751329_s_at) / Fold change (Aza/veh), VPS36 (ProbeSet 11739960_a_at) / Fold change (ACY-1035/veh), VPS36 (ProbeSet 11739960_a_at) / RFU SYPL1 (11715823_x_at) / Fold change /veh SYPL1 (11715823_x_at) / RFU IGFBP7 (11715501_s_at) / Fold change /veh IGFBP7 (11715501_s_at) / RFU REEP3 (11722064_at) / Fold change /veh REEP3 (11722064_at) / RFU IGLL1 (11728026_x_at) / Fold change /veh IGLL1 (11728026_x_at): dose or concentration left out as unconfirmed.

Turning to `Nc1ncn([C@@H]2O[C@H](CO)[C@@H](O)[C@H]2O)c(=O)n1` [azacitidine], the “Fold change /veh TUBB4B (11761932_at)” value was 1.00.
